A value given as a limit tells only on which side of the number the result lay.

This passage reports melting point results from a melting point compilation (Tetko et al.; mined from patent text by program, amines drawn as free bases though some values may be those of a salt).

`CS(=O)(=O)c1ccc(-c2cnn(Cc3ccc(O)cc3)c(=O)c2-c2ccc(F)cc2)cc1`: the melting point (as a rule, the temperature of the solid-liquid transition) fell in the range of 225 to 226 °C.

The molecule `CCOC(=O)c1c(Cl)nc2cc(OC)c(OC)cc2c1-c1ccc(OC)c(OC)c1` showed a melting point of 168 to 169 °C.

`CN1CCC(c2nn(-c3ccc(N)cc3)c3ccccc23)CC1`: the melting point lay within 116 to 118 °C.

Regarding `O=[N+]([O-])c1cc(-c2cn3c(n2)sc2ccccc23)cc(O)c1O`, the melting point was in the range of 303 to 305 °C.

Turning to `COc1ccc(-c2cc3cc(OC)cc(C=C(Cl)Cl)c3o2)cc1`, the melting point was in the range of 129 to 131 °C.

The molecule `O=C(Nc1ccccc1)C1=C(N2CCCC2)COC1=O` showed a melting point of 200 to 201 °C.

`CC1CC(=O)NN=C1c1ccc(NC(=O)OC2CCC2)cc1` (stereo not given) displayed a melting point of 245 to 246 °C.

`COC(=O)c1cc2c3ccccc3n(CC3CC3)c2s1` returned a melting point of 110 to 111 °C.

`CCOC(=O)C=Cc1cccc(I)c1` returned a melting point of 36.3 °C.

In turn, `CCC(CC)n1nnc2c(Nc3ccc(C(C)=O)cc3Br)nc(C)nc21` had a melting point of 153 to 154 °C.

Take `c1ccn2c(SCCN3CCNCC3)nnc2c1`: the melting point is 104 °C.

Molecule `Nc1cccc2cc(C(=O)O)ccc12` gave a melting point of 231 to 234 °C.

`CC1CCCC(=Cc2ccc(Cl)cc2)C1=O` (stereo not given) registered a melting point of 59 °C.

The molecule `CNC(=S)C1=CC(CF)(CF)Oc2ccc(C(F)(F)C(F)(F)C(F)(F)F)cc21` showed a melting point of 125 to 126 °C.

Take `Cc1cc(C(=O)NCOCc2cccnc2)ncc1C(c1cc(F)ccc1F)S(=O)(=O)c1ccc(F)cc1` (stereo not given): the melting point is 121 to 123 °C.

The molecule `COc1ccc(-c2nc(C)cc(OCCN3CCN(C(c4ccccc4)c4ccccc4)CC3)n2)cc1` had a melting point of 132 to 133 °C.

With `CC(Cc1ccccc1C(=O)O)c1cccs1` (stereo not given), the melting point lay within 66 to 68 °C.

`CSc1cc(C)c2ccc(N)nc2n1` gave a melting point of 204 to 209 °C.

`Cc1nc(-n2cc(C(F)(F)F)ccc2=O)sc1C(=O)NCc1ccccc1` had a melting point of 148 to 149 °C.

`Cc1cc(-c2ccc(C(F)(F)F)cc2)cc(-c2ccnc(-c3cccc(NS(C)(=O)=O)c3)c2)n1` came in with a melting point of 196 °C.

`CCCCCCCCCCC(O)CNCCNCC(O)CCCCCCCCCC` (stereo not given): the melting point fell in the range of 137 to 142 °C.

On to `CCCc1nc2c(N)nc3c(c2n1CC(C)(C)OCCS(C)(=O)=O)CCCC3`, for which the melting point lay within 188 to 190 °C.

Consider `CN1CCCC1=NC(=O)Nc1ccc(Cl)c(Cl)c1`, for which the melting point came to 160 °C.

Regarding `CCc1nccn1CC(=O)c1ccc(-c2ccc(N3C[C@H](Cn4ccnn4)OC3=O)cc2F)cn1`, the melting point fell in the range of 77 to 79 °C.

On to `CCOC(=O)CCN1CCN(C2=Nc3ccccc3Cc3ccccc32)CC1`, for which the melting point lay within 133 to 134 °C.

As to `Nc1ccccc1/C=C/C(=O)CC(=O)/C=C/c1ccc(O)cc1`, the melting point lay in the range of 186 to 193 °C.

For `O=Cc1csc(Nc2ccc(F)cc2)n1`, the melting point fell in the range of 152 to 155 °C.

With `O=C1NCCCN2c3ccccc3CC12` (stereo not given), the melting point was determined as 159 °C.

With `Nc1snc2nc(-c3ccccc3)sc12`, the melting point is 176 to 179 °C.

`N[C@@H](Cc1ccc([N+](=O)[O-])cc1I)C(=O)O` yielded a melting point of more than 200 °C.

Consider `COc1cc2c(cc1Nc1ncc(Cl)c(Nc3cc(C#N)ccc3OC)n1)CCN(CC(N)=O)CC2`, for which the melting point fell in the range of 100 to 125 °C.

`O=C1CCc2c(-c3ccc(F)cc3)sc(-c3ccncc3)c21` displayed a melting point of 155 to 157 °C.

In turn, `Cc1cc(C(O)(C(F)(F)F)C(F)(F)F)c2ccccc2c1NS(C)(=O)=O` gave a melting point of 174 °C.

`Nc1nccc(-c2c[nH]c3nccc(CCc4ccccc4)c23)n1` came in with a melting point of 196 to 198 °C.

For the molecule `CCCN(Cc1ccc(-c2ccccc2-c2nc(=O)s[nH]2)cc1)c1nc2ccccc2cc1C(=O)OCC`, the melting point fell in the range of 124 to 125 °C.

On to `NNc1nccc(-c2ccccc2)n1`, for which the melting point was in the range of 116 to 118 °C.

For `CCCOc1ccccc1-c1nc2cc(N)c(N)cc2c(=O)[nH]1`, the melting point was 195 to 197 °C.

`C[C@@H](S[C@H]1CO[C@H](c2ccccc2)OC1)[C@](O)(Cn1cncn1)c1ccc(F)cc1F` had a melting point of 58 to 60 °C.

In turn, `COc1ccc(C2=NOC(C)(c3nnc(S)n3N)C2)cc1OC1CCCC1` (stereo not given) yielded a melting point of 228 to 229 °C.

Molecule `CN(C)c1cc(-n2nc(N(C)C)n(C)c2=O)c(F)cc1C#N` showed a melting point of 109 to 110 °C.

With `CCOC(=O)C(=O)c1csc(NC(=O)CCl)n1`, the melting point was in the range of 178 to 180 °C.

Molecule `N#Cc1cc(-n2cnnc2)cc(C(F)(F)F)c1N` registered a melting point of 283 °C.

In the case of `CC1(C)OC=C(CS(=O)(=O)c2ccc(F)cc2)C1=O`, the melting point fell in the range of 159 to 160 °C.

Regarding `CC(=O)c1ccc(S(=O)(=O)Nc2ccccn2)cc1`, the melting point lay within 198 to 199 °C.

`CC(=O)N[C@@H](CO)C(=O)NCc1ccc(N)cc1` gave a melting point of 158 to 160 °C.

Consider `CC(=O)c1cc(O)c(O)c([N+](=O)[O-])c1`, for which the melting point fell in the range of 159 to 160 °C.

With `Cc1ccc(N2CSC(=NCc3ccc(C(F)(F)F)cc3)N(CC(F)(F)F)C2=O)cc1`, the melting point is 97 to 98.5 °C.

For the molecule `O=Cc1ccc(OCCCC(=O)O)c([N+](=O)[O-])c1`, the melting point lay within 136 to 139 °C.

`O=c1nc(-c2ccc3c(c2)OCO3)c2cc3c(cc2[nH]1)OCO3` had a melting point of more than 300 °C.

For the molecule `COc1ccc2cc(S(=O)(=O)Nc3cccc(Cl)c3C)cc(S(=O)(=O)Nc3cccc(Cl)c3C)c2c1`, the melting point fell in the range of 166 to 168 °C.

Molecule `CC(C)(CO)CCCCC(CCCCC(C)(C)CO)(C(=O)O)C(=O)O` came in with a melting point of 178 to 180 °C.

On to `Clc1ccc(-c2cn3ccccc3n2)c(Cl)c1`, for which the melting point is 174 to 177 °C.

Molecule `NS(=O)(=O)c1ccc(NC(=O)NC23CC4CC(CC(C4)C2)C3)cc1` returned a melting point of 270 to 275 °C.

As to `COc1cccc(-c2nc(-c3ccccc3C=O)n[nH]2)c1`, the melting point was in the range of 163 to 165 °C.

`COCc1nc2c(NCc3c(C)cccc3C)cc(C(=O)NCCO)cc2n1C`: the melting point lay in the range of 186 to 187 °C.

The molecule `CC(C)OC(=O)CCc1nc(-c2ccc(Cl)cc2)co1` showed a melting point of 30 to 31 °C.

As to `CCCCCCCCCCCC(O)CC1COC1=O` (stereo not given), the melting point fell in the range of 44.5 to 46 °C.

`COc1cc(Cl)c(N)cc1C(=O)NCC1CCCO1` (stereo not given) yielded a melting point of 109 to 110 °C.

Molecule `Cc1ccc2c(c1)C(c1ncnc3c1cnn3C1CCCC1)C(=O)N2` (stereo not given) returned a melting point of more than 300 °C.

Molecule `O=S(=O)(CC(F)(F)F)Nc1ccc(N2CCN(c3ccc(OCC(O)(Cn4cncn4)c4ccc(Cl)cc4Cl)cc3)CC2)cc1` (stereo not given) yielded a melting point of 74 to 75 °C.

Molecule `C(=C(c1ccccc1)c1ccccc1)c1ccc(N(c2ccccc2)c2ccc3c4c(cccc24)CC3)cc1` displayed a melting point of 189 to 190 °C.

`O=C(C[C@@H](O)C(F)(F)F)N[C@H]1CC[C@H](CCN2CCN(c3nccc4c3CCO4)CC2)CC1`: the melting point was 207 °C.

With `Clc1cccc(-c2nc(Cl)cc(Cl)n2)c1`, the melting point was in the range of 118 to 120 °C.

For the molecule `O=C1CSC(C(=O)O)Cc2cc3c(cc21)OCCO3` (stereo not given), the melting point was in the range of 208 to 209 °C.

As for `CCc1ccc([N+]([O-])=Cc2ccc(C)cc2)cc1`, the melting point was 97 to 99 °C.

On to `COC(=O)C1=C(CCc2ccccc2)NC(CC(=O)N2CCN(CC(=O)N3CCCC3)CC2)=C(C(=O)OC)C1c1c(Cl)cccc1Cl` (stereo not given), for which the melting point lay within 180 to 184 °C.

For the molecule `CCCCOP(=O)(OCCCC)OCN1C(=O)NC(c2ccccc2)(c2ccccc2)C1=O`, the melting point is 94.8 to 96.9 °C.

As for `O=C(c1ccc(-c2cccc3ccccc23)cc1)N1Cc2cccn2Cc2ccccc21`, the melting point lay within 170 to 171 °C.

The molecule `CN(Cc1ccccc1O)c1nc(N(C)Cc2ccccc2O)nc(N(C)Cc2ccccc2O)n1` displayed a melting point of 199 to 200 °C.

Turning to `CCN(Cc1cc(Br)ccc1OCc1ccccc1)c1ccc(-c2nnn[nH]2)cc1`, the melting point lay within 206 to 208 °C.

`O=C(O)CCCC/C=C(\c1ccc(-c2nc(C(=O)N[C@@H]3C[C@H]3c3ccccc3)co2)cc1)c1cccnc1`: the melting point lay in the range of 78 to 87 °C.

`O=C1CN2CCOC2(c2ccccc2F)c2cc(Cl)ccc2N1` (stereo not given) came in with a melting point of 183 to 184 °C.

On to `CCNCCNC(=O)c1ccnc(F)c1`, for which the melting point is 51 to 52 °C.

As to `CC(C)(C)OC(=O)NCCCCCn1c(=O)c2cccc3ncc(c1=O)n32`, the melting point was in the range of 82 to 83 °C.

Molecule `O=C(Nc1ccc(Cl)cc1)c1ccc([N+](=O)[O-])cc1` displayed a melting point of 233 to 235 °C.

Take `C=C(C)C(=O)CCCCCCOc1ccc(C(=O)O)cc1`: the melting point lay in the range of 81 to 94 °C.

Consider `O=C(Cc1ccccc1)Nc1n[nH]c(-c2ccc(F)cc2)c1-c1ccncc1`, for which the melting point lay within 289 to 290 °C.

For `CCC1(O)c2cc3n(c(=O)c2COC1O)Cc1cc2ccccc2nc1-3` (stereo not given), the melting point was found to be 280 °C.

On to `N#CN=C(Nc1ccccc1Br)Nc1ccc(C#N)c(Br)c1O`, for which the melting point was found to be 142 °C.

As for `CCCn1nc(C(N)=O)cc1CC(C)C`, the melting point was 141 to 142 °C.

`c1ccc(COc2cc(OCc3ccccc3)cc(OCc3ccccc3)c2)cc1` yielded a melting point of 91.5 to 91.9 °C.

As for `CCCC(=O)c1cnc2c(F)cccc2c1Cl`, the melting point lay in the range of 57 to 60 °C.

With `OC1CSC(Sc2cc(C(F)(F)F)cc(C(F)(F)F)c2)C(O)C1O` (stereo not given), the melting point is 157 to 158 °C.

With `CCCCCCN1N=C(c2ccc(F)cc2)c2cc(F)ccc2CS1(=O)=O`, the melting point is 93 to 96 °C.

As for `c1nc2c(cc1NC1=NCCN1)COCC2`, the melting point was 201 to 202 °C.

For `C#CCn1c2c(c3ccccc31)CCCC2`, the melting point lay within 74 to 76 °C.

Turning to `NC1=NC(c2ccc(OC(F)(F)F)cc2)(c2ccc(F)c(-c3cncnc3)c2)C(=O)N1C(F)F` (stereo not given), the melting point fell in the range of 82 to 94 °C.

The molecule `Fc1cc(F)c(-c2c(F)nc3ncncc3c2F)c(F)c1` returned a melting point of 248 °C.

Molecule `C#Cc1cccc(Nc2ncnc3c2ccn3CCOCCOC)c1` had a melting point of 240 to 241 °C.

Take `COc1cccc(Cc2nc3n(-c4c(Cl)cc(C=O)cc4Cl)[nH]c(C(C)C)c-3c(=O)n2)c1`: the melting point was 212 to 214 °C.
